Data: the supplement of paper PMC11451515

Experiments:
Conditions in all cases: 48 h
NOMO1 [1] = test: cell viability relative to DMSO control; higher = less cytotoxic
Summary of the method: (§1)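 Before seeding, each leukemia line was adapted for at least four passages in each medium. NOMO1 or SEM cells (500 cells/well) and P12-Ichikawa cells (1000 cells/well) went into 1536-well plates at 5 μl, then received library compounds in DMSO by pin dosing across 11 threefold concentrations, 47 μM to 0.79 nM. Readout was CellTiter-Glo One luminescence after 48 h at 37°C, and viability is given as a per-plate percentage of DMSO wells, with cell-free wells as background.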

P12-Ichikawa [2] = test: as above
Summary of the method: as §1

SEM cells [3] = test: as above
Summary of the method: as §1

NOMO1 [4] = test: AUC of viability dose-response curve (% viability x log10 dose units); higher = less sensitive
Summary of the method: (§2)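 In 1536-well plates, leukemia cells adapted to each medium (500 or 1000 cells/well) were exposed for 48 h at 37°C to library compounds in DMSO across 11 threefold doses, 47 μM down to 0.79 nM. Viability was read by CellTiter-Glo One luminescence and normalised per plate to DMSO and cell-free wells. A four-parameter log-logistic fit over log10 doses was integrated by trapezoidal rule. This yielded the area under the curve, with over-full-viability curves scaled and quality-control failures dropped.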

P12-Ichikawa [5] = test: as above
Summary of the method: as §2

SEM cells [6] = test: as above
Summary of the method: as §2

COc1ncnc(N[S+](=O)([O-])c2ccc(N)cc2)c1OC
cell viability [%]
Conditions	NOMO1 [1]	P12-Ichikawa [2]	SEM cells [3]
HPLM + 10% dialyzed FBS, 0.000781 µM	111	113	33.3
HPLM + 10% dialyzed FBS, 0.00234 µM	111	117	74
HPLM + 10% dialyzed FBS, 0.00702 µM	104	116	64.9
HPLM + 10% dialyzed FBS, 0.0211 µM	122	112	77.8
HPLM + 10% dialyzed FBS, 0.0632 µM	102	109	96.9
HPLM + 10% dialyzed FBS, 0.19 µM	123	92.6	75.1
HPLM + 10% dialyzed FBS, 0.569 µM	97.6	79.8	77.2
HPLM + 10% dialyzed FBS, 1.71 µM	61.4	72	46.8
HPLM + 10% dialyzed FBS, 5.12 µM	31.5	25.8	11.4
HPLM + 10% dialyzed FBS, 15.4 µM	8.89	22.2	5.63
HPLM + 10% dialyzed FBS, 46.1 µM	7.76	27	6.09
RPMI 5 mM glucose + 10% FBS, 0.000781 µM	97.7	115	46
RPMI 5 mM glucose + 10% FBS, 0.00234 µM	107	111	102
RPMI 5 mM glucose + 10% FBS, 0.00702 µM	107	116	82.5
RPMI 5 mM glucose + 10% FBS, 0.0211 µM	98	124	96.4
RPMI 5 mM glucose + 10% FBS, 0.0632 µM	101	101	101
RPMI 5 mM glucose + 10% FBS, 0.19 µM	112	85.3	88.3
RPMI 5 mM glucose + 10% FBS, 0.569 µM	103	73.3	59.3
RPMI 5 mM glucose + 10% FBS, 1.71 µM	106	59.3	44
RPMI 5 mM glucose + 10% FBS, 5.12 µM	51.3	43.8	6.03
RPMI 5 mM glucose + 10% FBS, 15.4 µM	24	12.9	4.36
RPMI 5 mM glucose + 10% FBS, 46.1 µM	13.5	11.6	5.06
RPMI 5 mM glucose + 10% dialyzed FBS, 0.000781 µM	103	108	39.2
RPMI 5 mM glucose + 10% dialyzed FBS, 0.00234 µM	115	116	96.9
RPMI 5 mM glucose + 10% dialyzed FBS, 0.00702 µM	97.2	113	79.2
RPMI 5 mM glucose + 10% dialyzed FBS, 0.0211 µM	110	103	114
RPMI 5 mM glucose + 10% dialyzed FBS, 0.0632 µM	117	97.1	118
RPMI 5 mM glucose + 10% dialyzed FBS, 0.19 µM	119	86.3	92.6
RPMI 5 mM glucose + 10% dialyzed FBS, 0.569 µM	123	66.6	86.1
RPMI 5 mM glucose + 10% dialyzed FBS, 1.71 µM	108	53.8	50.4
RPMI 5 mM glucose + 10% dialyzed FBS, 5.12 µM	70.9	39.4	17.9
RPMI 5 mM glucose + 10% dialyzed FBS, 15.4 µM	36.7	18.7	8.47
RPMI 5 mM glucose + 10% dialyzed FBS, 46.1 µM	19	14.8	8.64

AUC of viability dose-response curve
Conditions	HPLM + 10% dialyzed FBS	RPMI 5 mM glucose + 10% FBS	RPMI 5 mM glucose + 10% dialyzed FBS
NOMO1 [4]	348	394	404
P12-Ichikawa [5]	341	320	316

C[C@H]1CC2C3CCC/4=C/C(=O)/C=C\[C@]4(C)[C@@]3(F)[C@@H](O)C[C@]2(C)[C@@]1(O)C(=O)CO (some centres undefined)
AUC of viability dose-response curve
Conditions	NOMO1 [4]	P12-Ichikawa [5]	SEM cells [6]
HPLM + 10% dialyzed FBS	420	374	372
RPMI 5 mM glucose + 10% FBS	450	342	356
RPMI 5 mM glucose + 10% dialyzed FBS	466	330	348
